The values below come from paper PMC10272112 (Nature Communications, 2023).

The test addresses T1, HDAC6 (Homo sapiens, UniProt Q9UBN7).
T1 sequence (Q9UBN7 1-1215): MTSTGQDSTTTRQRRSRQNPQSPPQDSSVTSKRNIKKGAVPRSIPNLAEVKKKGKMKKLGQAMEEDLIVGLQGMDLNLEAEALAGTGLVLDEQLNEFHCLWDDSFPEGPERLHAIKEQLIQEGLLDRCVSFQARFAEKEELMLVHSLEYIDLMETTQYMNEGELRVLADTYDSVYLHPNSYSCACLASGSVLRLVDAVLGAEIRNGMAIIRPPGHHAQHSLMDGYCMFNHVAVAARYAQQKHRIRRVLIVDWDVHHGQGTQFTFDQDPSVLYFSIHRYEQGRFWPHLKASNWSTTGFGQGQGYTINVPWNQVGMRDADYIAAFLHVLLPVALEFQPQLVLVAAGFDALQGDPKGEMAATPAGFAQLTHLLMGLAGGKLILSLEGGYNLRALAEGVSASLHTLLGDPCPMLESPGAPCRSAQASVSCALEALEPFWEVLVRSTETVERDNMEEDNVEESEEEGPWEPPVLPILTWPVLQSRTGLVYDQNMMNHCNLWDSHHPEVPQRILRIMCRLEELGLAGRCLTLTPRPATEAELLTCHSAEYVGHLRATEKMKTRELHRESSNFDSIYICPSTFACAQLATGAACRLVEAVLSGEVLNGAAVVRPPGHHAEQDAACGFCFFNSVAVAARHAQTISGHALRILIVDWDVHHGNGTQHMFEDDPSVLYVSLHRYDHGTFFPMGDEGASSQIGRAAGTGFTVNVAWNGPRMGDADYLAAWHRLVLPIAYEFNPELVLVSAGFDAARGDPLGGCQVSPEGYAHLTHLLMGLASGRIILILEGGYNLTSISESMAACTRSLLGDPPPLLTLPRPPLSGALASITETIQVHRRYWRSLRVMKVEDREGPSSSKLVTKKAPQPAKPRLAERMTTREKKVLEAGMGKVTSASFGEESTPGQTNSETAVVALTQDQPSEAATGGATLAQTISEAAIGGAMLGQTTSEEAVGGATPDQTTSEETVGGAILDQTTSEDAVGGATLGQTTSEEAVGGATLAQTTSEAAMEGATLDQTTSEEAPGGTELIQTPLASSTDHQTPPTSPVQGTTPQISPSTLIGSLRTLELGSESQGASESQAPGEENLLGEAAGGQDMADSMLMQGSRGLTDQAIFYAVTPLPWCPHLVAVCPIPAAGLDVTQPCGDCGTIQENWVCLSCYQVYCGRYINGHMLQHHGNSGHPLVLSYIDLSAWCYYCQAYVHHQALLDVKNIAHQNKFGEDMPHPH
Nature of the test: HDAC-Glo assay. Further details: purchased BPS Bioscience 50006. It counts as biochemical. Particulars: for EC50: read-out: log EC50 from dose-dependent HDAC inhibition curves (converted). How it is done: To validate the inhibition of HDACs by LA and LM and elaborate on the structure-activity relationship (SAR) of enantiomers as well as oxidized versus reduced forms of the molecules, we performed enzyme activity assays for recombinant HDAC1,2,3,6,8 as well as FRET-based binding assay for recombinant HDAC10.
The experiments were performed according to ref. [48]. […] Drug dosing was performed with a D300e Digital Dispenser (Tecan). HDACs (7 ng/mL for HDAC1, 25 ng/mL for HDAC2, 200 ng/mL for HDAC3/Ncor2 complex, 100 ng/mL for HDAC6, 200 ng/mL for HDAC8) and inhibitors were incubated together at room temperature (RT) for 30 min. After the addition of the HDAC-Glo™ I/II reagent, plates were shaken (800 rpm orbital shaker, 30 s), centrifuged (300 g, 1 min), and incubated at RT for 30 min. Luminescence was detected with a CLARIOstar (BMG Labtech) plate reader.

Where “and” joins values, the source holds several entries; their conditions need not be identical. Equal entries are not always repeated.

For orientation: EC50 means the concentration needed to bring the measured effect to its halfway point. As to `O=C(O)CCCCC1CCSS1` (racemic) [(R/S)-LA, (R/S)-lipoic acid], the EC50 was 1.73 µM. Where the note is “0.5 M TCEP, log10 M -3.30103, 3 technical replicates”, the “HDAC enzymatic activity (normalized luminescence)” value was 1.458 and 1.424 and 1.356. The “HDAC enzymatic activity (normalized luminescence)” value (0.5 M TCEP, log10 M -3.82945, 3 technical replicates) is 2.832 and 2.728 and 2.83. For the same compound, the “HDAC enzymatic activity (normalized luminescence)” value (0.5 M TCEP, log10 M -4.35788, 3 technical replicates) is 6.139 and 5.789 and 5.799. In addition, the “HDAC enzymatic activity (normalized luminescence)” value (0.5 M TCEP, log10 M -4.88629, 3 technical replicates) is 13.455 and 13.5196 and 13.8559. Moreover, the “HDAC enzymatic activity (normalized luminescence)” value (0.5 M TCEP, log10 M -5.41477, 3 technical replicates) was 31.3499 and 32.1006 and 33.4073. The “HDAC enzymatic activity (normalized luminescence)” value (0.5 M TCEP, log10 M -5.94309, 3 technical replicates) was 55.9078 and 57.6015 and 56.5157. Also, the “HDAC enzymatic activity (normalized luminescence)” value (0.5 M TCEP, log10 M -6.47756, 3 technical replicates) is 76.0987 and 79.5289 and 82.7102. Moreover, the “HDAC enzymatic activity (normalized luminescence)” value (0.5 M TCEP, log10 M -6.87615, 3 technical replicates) was 85.7363 and 87.7513 and 88.064. Besides, under “no TCEP, log10 M -3.30103, 3 technical replicates”, the “HDAC enzymatic activity (normalized luminescence)” value is 23.0918 and 22.3431 and 22.7816. The “HDAC enzymatic activity (normalized luminescence)” value (no TCEP, log10 M -3.82945, 3 technical replicates) is 56.1761 and 58.3464 and 57.3647. Further, the “HDAC enzymatic activity (normalized luminescence)” value (no TCEP, log10 M -4.35788, 3 technical replicates) is 82.4637 and 85.6042 and 82.8934. Besides, the “HDAC enzymatic activity (normalized luminescence)” value (no TCEP, log10 M -4.88629, 3 technical replicates) is 93.4335 and 99.2455 and 95.9681. Also, the “HDAC enzymatic activity (normalized luminescence)” value (no TCEP, log10 M -5.41477, 3 technical replicates) was 97.1057 and 101.846 and 99.5994. The “HDAC enzymatic activity (normalized luminescence)” value (no TCEP, log10 M -5.94309, 3 technical replicates) is 97.3023 and 99.1974 and 100.246. Moreover, the “HDAC enzymatic activity (normalized luminescence)” value (no TCEP, log10 M -6.47756, 3 technical replicates) is 99.4261 and 102.712 and 105.54. The “HDAC enzymatic activity (normalized luminescence)” value (no TCEP, log10 M -6.87615, 3 technical replicates) was 96.4036 and 90.044 and 88.9734. The HDAC6 relative activity (sheet S2b, log conc -3.30103) is 1.144 and 1.081 and 1.088. Besides, the HDAC6 relative activity (sheet S2b, log conc -3.82945) is 2.37 and 2.452 and 2.46. For the setting “sheet S2b, log conc -4.35788”, the HDAC6 relative activity was 4.674 and 4.632 and 4.542. For the same compound, the HDAC6 relative activity (sheet S2b, log conc -4.88629) is 10.1866 and 10.4131 and 10.6467. In addition, the HDAC6 relative activity (sheet S2b, log conc -5.41477) was 23.025 and 23.2631 and 23.7333. Besides, for the setting “sheet S2b, log conc -5.94309”, the HDAC6 relative activity is 48.9979 and 48.9603 and 49.8705. In addition, the HDAC6 relative activity (sheet S2b, log conc -6.47756) is 72.291 and 73.4771 and 73.4953. In addition, the HDAC6 relative activity (sheet S2b, log conc -6.87615) is 86.8078 and 88.7475 and 90.3905. Moreover, the HDAC6 relative activity (sheet S2d, log conc -3.30103) is 1.458 and 1.424 and 1.356. For the same compound, the HDAC6 relative activity (sheet S2d, log conc -3.82945) is 2.832 and 2.728 and 2.83. For the setting “sheet S2d, log conc -4.35788”, the HDAC6 relative activity is 6.139 and 5.789 and 5.799. Further, where the note is “sheet S2d, log conc -4.88629”, the HDAC6 relative activity was 13.455 and 13.5196 and 13.8559. In addition, the HDAC6 relative activity (sheet S2d, log conc -5.41477) is 31.3499 and 32.1006 and 33.4073. The HDAC6 relative activity (sheet S2d, log conc -5.94309) was 55.9078 and 57.6015 and 56.5157. For the same compound, the HDAC6 relative activity (sheet S2d, log conc -6.47756) is 76.0987 and 79.5289 and 82.7102. For the setting “sheet S2d, log conc -6.87615”, the HDAC6 relative activity was 85.7363 and 87.7513 and 88.064.

With `NC(=O)CCCCC1CCSS1` (racemic) [(R/S)-LM, (R/S)-lipoamide], the EC50 is 0.931 µM. Besides, under “sheet S2b, log conc -3.30103”, the HDAC6 relative activity was 75.3248 and 75.1005 and 70.3242. Also, the HDAC6 relative activity (sheet S2b, log conc -3.82945) is 95.4583 and 94.7241 and 92.4168. Further, the HDAC6 relative activity (sheet S2b, log conc -4.35788) was 101.41 and 101.875 and 100.004. Besides, the HDAC6 relative activity (sheet S2b, log conc -4.88629) is 103.293 and 100.632 and 100.653. Where the note is “sheet S2b, log conc -5.41477”, the HDAC6 relative activity is 102.294 and 103.492 and 99.8033. Also, the HDAC6 relative activity (sheet S2b, log conc -5.94309) is 101.321 and 102.657 and 100.612. Further, the HDAC6 relative activity (sheet S2b, log conc -6.47756) is 107.714 and 104.061 and 103.825. Moreover, the HDAC6 relative activity (sheet S2b, log conc -6.87615) is 97.9564 and 94.6265 and 91.4846.
